# From ChEMBL document CHEMBL1201862, “PubChem BioAssay data set” (2004)
# The source made the active and inactive calls.
# Tests used:
# [1] = molecular target: T1, Bifunctional protein GlmU (Mycobacterium tuberculosis, UniProt P9WMN3); assay: Inhibitors of Mycobacterial Glucosamine-1-phosphate acetyl transferase (GlmU). Secondary screen.; set-up: species or system Mycobacterium tuberculosis H37Rv
# T1 sequence (P9WMN3 whole entry): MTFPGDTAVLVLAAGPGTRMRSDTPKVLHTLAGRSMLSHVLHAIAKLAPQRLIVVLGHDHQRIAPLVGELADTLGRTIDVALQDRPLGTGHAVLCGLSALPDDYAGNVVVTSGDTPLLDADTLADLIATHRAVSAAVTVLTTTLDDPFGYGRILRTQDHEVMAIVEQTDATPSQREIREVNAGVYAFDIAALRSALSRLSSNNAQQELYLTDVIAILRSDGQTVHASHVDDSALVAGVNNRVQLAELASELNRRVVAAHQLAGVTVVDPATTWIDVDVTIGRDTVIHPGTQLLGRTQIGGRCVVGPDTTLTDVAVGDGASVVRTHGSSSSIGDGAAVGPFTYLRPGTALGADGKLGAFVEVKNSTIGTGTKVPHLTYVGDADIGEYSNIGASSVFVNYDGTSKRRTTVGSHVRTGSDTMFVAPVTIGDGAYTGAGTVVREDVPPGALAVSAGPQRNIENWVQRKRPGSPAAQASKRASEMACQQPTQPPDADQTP
# Large T antigen = Large T antigen (Simian virus 40, UniProt P03070); format: functional, Betapolyomavirus macacae;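 also: Confirmatory-stage PubChem screen for compounds that inhibit SV40 T antigen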
# HeLa = assay: HeLa cell cytotoxicity, dose response, cytotoxicity control, 24 h, cherry-picked samples (AID 504726); format: functional, cell-based; conditions: Homo sapiens;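 also: potency for cytotoxicity as loss of luminescence signal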
# [2] = molecular target: T2, Alkaline phosphatase, tissue-nonspecific isozyme (Homo sapiens, UniProt P05186); assay: TNAP enzyme inhibition by screening hits, dose response, selectivity assay for mouse IAP inhibitor project, biochemical, human TNAP, uHTS hits (AID 488906); format: functional
# T2 sequence (P05186 whole entry): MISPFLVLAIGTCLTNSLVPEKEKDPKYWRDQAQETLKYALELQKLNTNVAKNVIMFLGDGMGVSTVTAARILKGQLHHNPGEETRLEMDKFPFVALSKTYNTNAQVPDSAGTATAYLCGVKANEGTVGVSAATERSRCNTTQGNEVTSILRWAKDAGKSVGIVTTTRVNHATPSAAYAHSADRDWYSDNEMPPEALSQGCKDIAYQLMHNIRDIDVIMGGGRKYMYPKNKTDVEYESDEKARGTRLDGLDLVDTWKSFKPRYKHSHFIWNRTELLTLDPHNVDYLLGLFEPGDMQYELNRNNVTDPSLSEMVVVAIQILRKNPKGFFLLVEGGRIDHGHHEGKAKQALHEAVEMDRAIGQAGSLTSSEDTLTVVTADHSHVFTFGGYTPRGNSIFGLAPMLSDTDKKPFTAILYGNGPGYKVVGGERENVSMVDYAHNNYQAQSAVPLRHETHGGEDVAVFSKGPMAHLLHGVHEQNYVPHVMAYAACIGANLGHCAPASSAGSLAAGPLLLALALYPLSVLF
# [3] = molecular target: T3, 1-phosphatidylinositol 4,5-bisphosphate phosphodiesterase gamma-1 (Homo sapiens, UniProt P19174); assay: Counterscreen for inhibitors of phospholipase C isozymes (PLC-B3): Fluorescence-based biochemical high throughput dose response assay to identify inhibitors of phospholipase C isozymes (PLC-gamma1).
# T3 sequence (P19174 whole entry): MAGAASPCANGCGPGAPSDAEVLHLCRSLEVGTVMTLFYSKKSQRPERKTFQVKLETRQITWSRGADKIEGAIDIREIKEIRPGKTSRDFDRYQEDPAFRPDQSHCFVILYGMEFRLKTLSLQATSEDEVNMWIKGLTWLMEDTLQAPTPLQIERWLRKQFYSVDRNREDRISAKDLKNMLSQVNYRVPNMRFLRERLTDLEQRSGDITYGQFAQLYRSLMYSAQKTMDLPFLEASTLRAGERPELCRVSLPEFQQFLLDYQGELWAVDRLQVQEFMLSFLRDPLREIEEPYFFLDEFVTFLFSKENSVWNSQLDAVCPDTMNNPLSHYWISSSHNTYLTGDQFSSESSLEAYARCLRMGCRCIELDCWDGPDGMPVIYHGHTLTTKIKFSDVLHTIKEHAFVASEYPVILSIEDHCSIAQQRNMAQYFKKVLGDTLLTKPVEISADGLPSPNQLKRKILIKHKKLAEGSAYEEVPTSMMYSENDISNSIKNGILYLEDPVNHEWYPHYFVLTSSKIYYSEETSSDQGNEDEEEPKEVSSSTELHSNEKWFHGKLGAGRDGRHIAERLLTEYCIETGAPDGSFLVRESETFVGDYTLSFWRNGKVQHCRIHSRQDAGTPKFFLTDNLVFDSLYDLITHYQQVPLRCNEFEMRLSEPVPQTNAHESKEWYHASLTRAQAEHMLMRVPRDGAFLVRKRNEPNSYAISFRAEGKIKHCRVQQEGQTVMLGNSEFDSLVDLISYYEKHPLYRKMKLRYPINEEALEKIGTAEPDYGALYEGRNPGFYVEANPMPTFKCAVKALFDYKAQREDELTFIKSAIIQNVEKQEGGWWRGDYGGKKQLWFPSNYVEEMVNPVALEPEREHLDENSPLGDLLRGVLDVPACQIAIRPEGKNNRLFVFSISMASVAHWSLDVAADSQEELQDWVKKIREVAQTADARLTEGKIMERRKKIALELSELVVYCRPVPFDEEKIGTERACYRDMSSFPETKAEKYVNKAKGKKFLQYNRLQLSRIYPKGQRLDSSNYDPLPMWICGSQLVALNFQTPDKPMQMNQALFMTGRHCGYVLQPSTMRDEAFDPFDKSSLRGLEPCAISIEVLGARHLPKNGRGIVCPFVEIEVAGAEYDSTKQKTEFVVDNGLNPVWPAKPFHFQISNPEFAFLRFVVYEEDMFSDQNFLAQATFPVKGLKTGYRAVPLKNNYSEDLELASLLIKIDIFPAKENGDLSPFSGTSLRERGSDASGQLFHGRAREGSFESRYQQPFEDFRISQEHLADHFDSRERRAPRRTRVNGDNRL
# [4] = NIH-3T3 fibroblast cytotoxicity, dose response, cytotoxicity control, cell-based, fluorescence, Alamar Blue, secondary assay (AID 2327); format: functional;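 also: NIH-3T3 mouse fibroblasts cultured with fluconazole at 8 µg/mL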
# [5] = molecular target: Glutathione-S-transferase (Schistosoma japonicum, UniProt Q26513); assay: biotin-GST/anti-GST TR-FRET signal inhibitors, dose response, artefact control for Vif-APOBEC3G degradation inhibitor project, biochemical (AID 1117362); format: functional
# [6] = HepG2 cell cytotoxicity, dose response, cytotoxicity control, plate reader, cherry-pick, antagonist series (AID 743416); format: functional, cell-based
# [7] = molecular target: Polyadenylate-binding protein 1 (Homo sapiens, UniProt P11940); assay: PABP1 MLLE–PAM2 binding inhibitor potency, dose response, biochemical, fluorescence polarization, FITC-PAM2 peptide (AID 602259); format: functional; conditions: read-out: IC50_Mean
# Sequence of Polyadenylate-binding protein 1 (P11940 whole entry): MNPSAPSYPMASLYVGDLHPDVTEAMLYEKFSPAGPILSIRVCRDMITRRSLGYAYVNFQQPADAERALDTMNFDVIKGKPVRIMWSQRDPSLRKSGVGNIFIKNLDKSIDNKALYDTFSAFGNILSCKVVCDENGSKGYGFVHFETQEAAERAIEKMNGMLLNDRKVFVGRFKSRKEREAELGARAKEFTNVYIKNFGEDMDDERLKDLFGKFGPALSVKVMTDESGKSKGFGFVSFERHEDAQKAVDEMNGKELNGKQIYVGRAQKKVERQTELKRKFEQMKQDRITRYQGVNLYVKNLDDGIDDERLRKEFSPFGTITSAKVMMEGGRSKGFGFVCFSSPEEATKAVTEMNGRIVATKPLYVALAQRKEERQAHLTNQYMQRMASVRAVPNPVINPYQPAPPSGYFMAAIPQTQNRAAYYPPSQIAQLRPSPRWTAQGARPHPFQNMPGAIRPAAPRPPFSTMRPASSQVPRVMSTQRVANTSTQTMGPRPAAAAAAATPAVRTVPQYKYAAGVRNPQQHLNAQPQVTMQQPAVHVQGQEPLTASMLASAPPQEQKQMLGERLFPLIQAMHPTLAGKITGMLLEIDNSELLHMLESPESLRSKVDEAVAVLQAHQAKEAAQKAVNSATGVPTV
# Sequence of Glutathione-S-transferase (Q26513 whole entry): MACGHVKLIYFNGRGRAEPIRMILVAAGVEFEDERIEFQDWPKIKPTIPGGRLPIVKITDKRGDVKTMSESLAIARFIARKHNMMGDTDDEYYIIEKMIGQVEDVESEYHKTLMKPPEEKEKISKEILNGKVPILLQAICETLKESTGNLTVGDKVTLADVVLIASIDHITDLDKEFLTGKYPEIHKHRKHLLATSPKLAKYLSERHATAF
# Sequence of Large T antigen (P03070 whole entry): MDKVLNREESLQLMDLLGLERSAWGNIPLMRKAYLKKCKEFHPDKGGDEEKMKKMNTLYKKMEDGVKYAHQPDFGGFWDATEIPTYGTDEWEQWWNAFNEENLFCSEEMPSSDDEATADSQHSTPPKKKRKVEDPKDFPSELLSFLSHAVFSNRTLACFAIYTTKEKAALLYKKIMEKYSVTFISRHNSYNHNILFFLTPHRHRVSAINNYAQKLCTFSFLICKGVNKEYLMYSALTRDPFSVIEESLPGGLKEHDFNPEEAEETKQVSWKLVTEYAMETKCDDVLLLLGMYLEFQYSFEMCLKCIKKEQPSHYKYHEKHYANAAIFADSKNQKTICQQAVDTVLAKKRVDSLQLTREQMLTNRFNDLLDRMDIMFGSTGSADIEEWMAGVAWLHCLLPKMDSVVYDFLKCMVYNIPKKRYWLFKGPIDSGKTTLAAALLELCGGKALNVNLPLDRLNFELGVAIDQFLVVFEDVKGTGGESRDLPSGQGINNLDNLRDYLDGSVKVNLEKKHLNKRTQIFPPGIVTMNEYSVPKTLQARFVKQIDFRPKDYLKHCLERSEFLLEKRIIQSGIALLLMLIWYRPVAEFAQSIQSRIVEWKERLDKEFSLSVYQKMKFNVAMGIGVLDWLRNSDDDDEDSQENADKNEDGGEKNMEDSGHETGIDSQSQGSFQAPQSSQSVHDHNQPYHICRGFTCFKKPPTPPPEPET
compound,measurement,setting,value
O=C(O)c1cc(N2N=C(C(F)(F)F)/C(=C/C=C/c3ccco3)C2=O)ccc1Cl,IC50,[1],94.3 µM (active)
same,IC50,Large T antigen,4.47 µM (active)
same,AC50,HeLa,24.9 µM (active)
O=C(/C=C/c1ccco1)NC(=S)Nc1cccc(C(=O)O)c1,IC50,[2],76.1 µM (active)
same,IC50,[3],> 122 µM (inactive)
CNCc1ccccc1Sc1ccc(O)c(O)c1,EC50,[4],> 150 µM (inactive)
same,IC50,[5],16 µM (active)
same,AC50,[6],> 52 µM (inactive)
same,IC50,[7],> 66 µM (inactive)
